From US10723741B1, “DNA polymerase IIIC inhibitors and use thereof” (Acurx Pharmaceuticals, LLC, priority 2018, dated 2020)
In brackets after ≈: the same amount, converted by molar mass. Structures can show the parent of a compound that is named as a salt. Where two headings read alike, the source gives them in different places.

Experiments:
Type in all cases: cell-based
[1] = tested on: Enterococcus faecalis ATCC 29212; test: Broth microdilution MIC, E. faecalis ATCC 29212; conditions: read-out: MIC E. faecalis ATCC 29212
In short: (§1)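 Two-fold dilutions from 64 to 0.0625 μg/ml final, 1% DMSO, were inoculated at ~5.0×10^5 cfu/ml in the strain's test medium and kept 20 h at 37 °C in ambient atmosphere. Colonies were grown on MHA, with S. pneumoniae on blood agar under 5% CO2.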

[2] = tested on: Bacillus subtilis ATCC 6633; test: Broth microdilution MIC, B. subtilis ATCC 6633; conditions: read-out: MIC B. subtilis ATCC 6633
In short: as §1

[3] = tested on: Streptococcus pneumoniae ATCC 49619; test: Broth microdilution MIC, S. pneumoniae ATCC 49619; conditions: read-out: MIC S. pneumoniae ATCC 49619
In short: as §1

[4] = tested on: Enterococcus faecium ATCC 700221 (VRE); test: Broth microdilution MIC, E. faecium ATCC 700221 (VRE); conditions: Enterococcus faecium, read-out: MIC E. faecium ATCC 700221 (VRE)
In short: as §1

[5] = tested on: Escherichia coli ATCC 25922; test: Broth microdilution MIC, E. coli ATCC 25922 (MHIIB w & w/o 4 mM EDTA); conditions: for MIC: Escherichia coli, read-out: MIC E. coli ATCC 25922; for MIC E. coli ATCC 25922 + 4 mM EDTA: with 4 mM EDTA
In short: as §1

[6] = tested on: Staphylococcus aureus ATCC 29213 (MSSA); test: Broth microdilution MIC, S. aureus ATCC 29213 (MSSA); conditions: read-out: MIC S. aureus ATCC 29213 (MSSA)
In short: as §1

[7] = tested on: Staphylococcus aureus NRS384 (MRSA); test: Broth microdilution MIC, S. aureus NRS384 (MRSA); conditions: Staphylococcus aureus, read-out: MIC NRS 384 (MRSA)
In short: as §1

[8] = ATCC29212, broth microdilution, 37° C., 20 hours
[9] = ATCC6633, broth microdilution, 37° C., 20 hours
[10] = ATCC49619, broth microdilution, 37° C., 20 hours
[11] = broth microdilution, 37° C., 20 hours
[12] = ATCC25922, without EDTA, broth microdilution, 37° C., 20 hours

Row | SMILES | MIC [1, 8] [µg/mL] | MIC [2, 9] [µg/mL] | MIC [3, 10] [µg/mL] | MIC [4, 11] [µg/mL] | MIC [5, 12] [µg/mL] | MIC E. coli ATCC 25922 + 4 mM EDTA [5, 11] [µg/mL] | MIC [6, 11] [µg/mL] | MIC [7, 11] [µg/mL] | MIC ([1]; ATCC29212, 20 h) [µg/mL] | MIC ([2]; ATCC6633, 20 h) [µg/mL] | MIC ([3]; ATCC49619, 20 h) [µg/mL] | MIC ([4]; 20 h) [µg/mL] | MIC ([5]; ATCC25922, 20 h) [µg/mL] | MIC ([6]; 20 h) [µg/mL] | MIC ([7]; 20 h) [µg/mL]
1 | CCOC(=O)CCCCn1ncc2nc(NCc3ccc(Cl)c(Cl)c3)[nH]c(=O)c21 [Compound 203, ethyl 5-(5-((3,4-dichlorobenzyl)amino)-7-oxo-6,7-dihydro-1H-pyrazolo[4,3-d]pyrimidin-1-yl)pentanoate] | > 64 | 0.5 (≈ 1.14 µM) | 8 (≈ 18.3 µM) | 2 (≈ 4.56 µM) | > 64 | >64 | 2 (≈ 4.56 µM) | 2 (≈ 4.56 µM) | – | – | – | – | – | – | –
2 | CC(C)OC(=O)CCCCn1ncc2nc(NCc3ccc(Cl)c(Cl)c3)[nH]c(=O)c21 [Compound 204, isopropyl 5-(5-((3,4-dichlorobenzyl)amino)-7-oxo-6,7-dihydro-1H-pyrazolo[4,3-d]pyrimidin-1-yl)pentanoate] | > 64 | 1 (≈ 2.21 µM) | 16 (≈ 35.4 µM) | 2 (≈ 4.42 µM) | > 64 | >64 | 4 (≈ 8.84 µM) | 2 (≈ 4.42 µM) | – | – | – | – | – | – | –
3 | CCOC(=O)CCCn1ncc2nc(NCc3ccc(Cl)c(Cl)c3)[nH]c(=O)c21 [Compound 205, ethyl 4-(5-((3,4-dichlorobenzyl)amino)-7-oxo-6,7-dihydro-1H-pyrazolo[4,3-d]pyrimidin-1-yl)butanoate] | 4 (≈ 9.43 µM) | 1 (≈ 2.36 µM) | 8 (≈ 18.9 µM) | 2 (≈ 4.71 µM) | > 64 | >64 | 4 (≈ 9.43 µM) | 2 (≈ 4.71 µM) | – | – | – | – | – | – | –
4 | CC(C)OC(=O)CCCn1ncc2nc(NCc3ccc(Cl)c(Cl)c3)[nH]c(=O)c21 [Compound 206, isopropyl 4-(5-((3,4-dichlorobenzyl)amino)-7-oxo-6,7-dihydro-1H-pyrazolo[4,3-d]pyrimidin-1-yl)butanoate] | > 64 | 1 (≈ 2.28 µM) | 16 (≈ 36.5 µM) | 4 (≈ 9.13 µM) | > 64 | >64 | > 64 | > 64 | – | – | – | – | – | – | –
5 | O=c1[nH]c(NCc2ccc(Cl)c(Cl)c2)nc2cnn(C[C@@H]3CO[C@@H](CO)CO3)c12 [Compound 207, 5-((3,4-dichlorobenzyl)amino)-1-(((2R,5S)-5-(hydroxymethyl)-1,4-dioxan-2-yl)methyl)-1H-pyrazolo[4,3-d]pyrimidin-7(6H)-one] | 8 (≈ 18.2 µM) | 2 (≈ 4.54 µM) | 8 (≈ 18.2 µM) | 4 (≈ 9.08 µM) | > 64 | >64 | 16 (≈ 36.3 µM) | 16 (≈ 36.3 µM) | – | – | – | – | – | – | –
6 | O=c1[nH]c(NCc2ccc(Cl)c(Cl)c2)nc2cnn(C[C@@H]3CO[C@H](CO)CO3)c12 [Compound 208, 5-((3,4-dichlorobenzyl)amino)-1-(((2R,5R)-5-(hydroxymethyl)-1,4-dioxan-2-yl)methyl)-1H-pyrazolo[4,3-d]pyrimidin-7(6H)-one] | 8 (≈ 18.2 µM) | 2 (≈ 4.54 µM) | 8 (≈ 18.2 µM) | 4 (≈ 9.08 µM) | > 64 | >64 | 16 (≈ 36.3 µM) | 16 (≈ 36.3 µM) | – | – | – | – | – | – | –
7 | O=C(O)CCCCn1nc(F)c2nc(NCc3ccc(Cl)c(Cl)c3)[nH]c(=O)c21 [Compound 209, 5-(5-((3,4-dichlorobenzyl)amino)-3-fluoro-7-oxo-6,7-dihydro-1H-pyrazolo[4,3-d]pyrimidin-1-yl)pentanoic acid] | 4 (≈ 9.34 µM) | 4 (≈ 9.34 µM) | 4 (≈ 9.34 µM) | 1 (≈ 2.34 µM) | > 64 | >64 | 8 (≈ 18.7 µM) | 16 (≈ 37.4 µM) | – | – | – | – | – | – | –
8 | O=C(O)CCCCn1nc(F)c2nc(NCc3ccc(F)c(F)c3)[nH]c(=O)c21 [Compound 210, 5-(5-((3,4-Difluorobenzyl)amino)-3-fluoro-7-oxo-6,7-dihydro-1H-pyrazolo[4,3-d]pyrimidin-1-yl)pentanoic acid] | 32 (≈ 80.9 µM) | 64 (≈ 162 µM) | 16 (≈ 40.5 µM) | 16 (≈ 40.5 µM) | > 64 | >64 | 32 (≈ 80.9 µM) | 64 (≈ 162 µM) | – | – | – | – | – | – | –
9 | O=c1[nH]c(NCc2ccc(Cl)c(Cl)c2)nc2cn(C3CCNC3)nc12 (stereo not drawn) [Compound 215, 5-((3,4-Dichlorobenzyl)amino)-2-(pyrrolidin-3-yl)-2H-pyrazolo[4,3-d]pyrimidin-7(6H)-one TFA salt] | – | – | – | – | – | 64 | – | – | > 64 | 64 | 16 | > 64 | > 64 | > 64 | > 64
10 | O=c1[nH]c(NCc2ccc(Cl)c(Cl)c2)nc2cnn(C3CCNC3)c12 (stereo not drawn) [Compound 216, 5-((3,4-dichlorobenzyl)amino)-1-(pyrrolidin-3-yl)-1H-pyrazolo[4,3-d]pyrimidin-7(6H)-one TFA salt] | – | – | – | – | – | >64 | – | – | 16 | 4 | 4 | 16 | > 64 | 16 | 16
11 | O=C(CCCCn1ncc2nc(NCc3ccc(Cl)c(Cl)c3)[nH]c(=O)c21)NO [Compound 217, 5-[5-[(3,4-dichlorophenyl)methylamino]-7-oxo-6H-pyrazolo[4,3-d]pyrimidin-1-yl]pentanehydroxamic acid] | 16 (≈ 37.6 µM) | 8 (≈ 18.8 µM) | 4 (≈ 9.41 µM) | 16 (≈ 37.6 µM) | > 64 | >64 | 32 (≈ 75.2 µM) | 32 (≈ 75.2 µM) | – | – | – | – | – | – | –
12 | O=C(O)CCCCn1ncc2nc(NCc3ccc(Cl)c(Cl)c3)[nH]c(=O)c21 [Compound 219, 5-[5-[(3,4-dichlorophenyl)methylamino]-7-oxo-6H-pyrazolo[4,3-d]pyrimidin-1-yl]pentanoic Acid] | 16 (≈ 39 µM) | 32 (≈ 78 µM) | 4 (≈ 9.75 µM) | 4 (≈ 9.75 µM) | > 64 | >64 | 32 (≈ 78 µM) | 16 (≈ 39 µM) | – | – | – | – | – | – | –
